Data set [1] in a line: Cytotoxicity against human NB4 cells assessed as decrease in cell viability after 48 hrs by MTT assay. The class given is functional, cell-based. As to conditions: NB-4, 48 h.
A short description of data set [2]: Cytotoxicity against human MKN45 cells assessed as decrease in cell viability after 48 hrs by MTT assay. Type of data set: functional, cell-based. As to conditions: MKN-45, 48 h.
Data set [3] can be described thus: Antiproliferative activity against human MKN45 cells at 20 uM after 48 hrs by MTT assay relative to control. Type of data set: functional. As to conditions: MKN-45, 48 h, read-out: GI.
Data set [4] in a line: Antiproliferative activity against human NB4 cells at 5 uM after 48 hrs by MTT assay relative to control. Type of data set: functional. As to conditions: NB-4, 48 h, read-out: GI.
Data set [5] is described as follows: Cytotoxicity against primary goat fetal fibroblast assessed as decrease in cell viability after 48 hrs by MTT assay. Type of data set: toxicity. As to conditions: goat (Capra hircus), primary goat fetal fibroblasts.
Data set [6] can be described thus: Cytotoxicity against primary porcine fetal kidney cells assessed as decrease in cell viability after 48 hrs by MTT assay. As to conditions: pig (Sus scrofa). Type of data set: toxicity, cell-based.

The structures appear in SMILES notation.

As to `COc1cccc2c1C=[N+](c1cccc(F)c1)CC2`, the IC50 in data set [1] was 18.8 µM; in data set [2], 11.3 µM. The inhibition of growth at 20 µM in data set [3] worked out at 80.6%. For the same compound, the inhibition of growth at 5 µM in data set [4] was found to be 37.6%.
Turning to `COc1cccc2c1C=[N+](c1ccc(I)cc1F)CC2`, the IC50 in data set [1] is 3.64 µM; in data set [2] it was 7.98 µM. Moreover, the inhibition of growth at 20 µM in data set [3] was 89%. Further, in data set [4], the inhibition of growth at 5 µM was determined as 54.8%.
`CC(=O)Oc1cccc2c1C=[N+](c1ccccc1I)CC2`: the inhibition of growth at 20 µM in data set [3] was 3.4%. Moreover, the inhibition of growth at 5 µM in data set [4] came out at 15%.
Take `COc1cccc2c1C=[N+](c1cccc(C#N)c1)CC2`: the IC50 came to 3.66 µM in data set [1] and 7.13 µM in data set [2]. For the same compound, in data set [3], the inhibition of growth at 20 µM was determined as 83.4%. Also, the inhibition of growth at 5 µM in data set [4] came out at 39.6%.
Take `Oc1cccc2c1C=[N+](c1ccccc1I)CC2`: the inhibition of growth at 20 µM in data set [3] was 30.9%. In addition, in data set [4], the inhibition of growth at 5 µM turned out to be 22.9%.
Consider `COc1cccc2c1C=[N+](c1cccc(Br)c1)CC2`, for which the IC50 came out at 4.62 µM in data set [1] and 10.5 µM in data set [2]. In addition, the inhibition of growth at 20 µM in data set [3] amounted to 87.4%. For the same compound, the inhibition of growth at 5 µM in data set [4] is 46.6%.
For the compound `COc1cccc([N+]2=Cc3c(cccc3OC)CC2)c1`, the IC50 in data set [1] is 22.8 µM; in data set [2] it was 15.1 µM. Moreover, the inhibition of growth at 20 µM in data set [3] was 66.2%. The inhibition of growth at 5 µM in data set [4] was 22.8%.
Turning to `COc1cccc2c1C=[N+](c1cccc(Cl)c1)CC2`, the IC50 was 22.4 µM in data set [1] and 9.99 µM in data set [2]. The inhibition of growth at 20 µM in data set [3] was determined as 73.3%. Also, the inhibition of growth at 5 µM in data set [4] was 35.1%.
`COc1cccc2c1C=[N+](c1cccc(O)c1)CC2`: the inhibition of growth at 20 µM in data set [3] was 24.5%. Also, the inhibition of growth at 5 µM in data set [4] amounted to 24.2%.
Regarding `COc1cccc2c1C=[N+](c1c(F)cccc1F)CC2`, the IC50 in data set [1] worked out at 3.9 µM; in data set [2], 8.43 µM. Besides, the inhibition of growth at 20 µM in data set [3] came out at 80.5%. The inhibition of growth at 5 µM in data set [4] is 48.9%.
Regarding `COc1cccc2c1C=[N+](c1cccc(C)c1)CC2`, the IC50 in data set [2] was 8.57 µM. The inhibition of growth at 20 µM in data set [3] came to 79.6%. In data set [4], the inhibition of growth at 5 µM is 3.1%.
For the compound `COc1cccc2c1C=[N+](c1ccccc1Cl)CC2`, the IC50 in data set [1] stood at 9.29 µM; in data set [2], 7.21 µM. Moreover, the inhibition of growth at 20 µM in data set [3] is 84%. In addition, the inhibition of growth at 5 µM in data set [4] turned out to be 47.6%.
With `COc1cccc2c1C=[N+](c1ccccc1C(F)(F)F)CC2`, the IC50 in data set [1] amounted to 3.06 µM; in data set [2], 2.92 µM. In data set [3], the inhibition of growth at 20 µM turned out to be 85%. Besides, the inhibition of growth at 5 µM in data set [4] came to 59.3%.
For the compound `COc1ccc2c(c[n+](C)c3c4cc5c(cc4ccc23)OCO5)c1OC` [CHELERYTHRINE], the values for the IC50 in data set [1] and in data set [2] were 1.49 µM and 12.7 µM, respectively. The inhibition of growth at 20 µM in data set [3] came to 92.7%. For the same compound, in data set [4], the inhibition of growth at 5 µM came out at 88.4%.
Regarding `COc1cccc2c1C=[N+](c1ccc(Cl)cc1)CC2`, in data set [3], the inhibition of growth at 20 µM came to 12.3%. Also, the inhibition of growth at 5 µM in data set [4] worked out at 23.1%.
With `COc1cccc2c1C=[N+](c1cccc(I)c1)CC2`, the values for the IC50 in data set [1] and in data set [2] were 1.67 µM and 11.4 µM, respectively. Further, the inhibition of growth at 20 µM in data set [3] amounted to 73%. Moreover, the inhibition of growth at 5 µM in data set [4] was 45.3%. Further, the figures for the IC50 at 48 h in data set [5] and in data set [6] were 2.67 µM and 4.57 µM, respectively.
Consider `Ic1ccccc1[N+]1=Cc2c(cccc2OCc2ccccc2)CC1`, for which the IC50 was 2.65 µM in data set [1] and 1.99 µM in data set [2]. Further, the inhibition of growth at 20 µM in data set [3] is 91.5%. Moreover, the inhibition of growth at 5 µM in data set [4] worked out at 78.2%.
For the compound `C[n+]1cc2c3c(ccc2c2ccc4cc5c(cc4c21)OCO5)OCO3` [SANGUINARIUM], the IC50 in data set [1] was 0.53 µM; in data set [2] it was 1.51 µM. The inhibition of growth at 20 µM in data set [3] was found to be 92.3%. Moreover, in data set [4], the inhibition of growth at 5 µM came to 88.5%.
With `COc1cccc2c1C=[N+](c1ccccc1)CC2`, the inhibition of growth at 20 µM in data set [3] came out at 14.4%. Further, the inhibition of growth at 5 µM in data set [4] worked out at 20.5%.
Consider `COc1cccc2c1C=[N+](c1ccccc1Br)CC2`, for which the IC50 in data set [1] was 5.3 µM; in data set [2], 6.89 µM. Further, the inhibition of growth at 20 µM in data set [3] amounted to 86.8%. For the same compound, the inhibition of growth at 5 µM in data set [4] turned out to be 48.6%.
As to `COc1ccccc1[N+]1=Cc2c(cccc2OC)CC1`, the inhibition of growth at 20 µM in data set [3] was found to be 15%. In data set [4], the inhibition of growth at 5 µM is 2.1%.
As to `COc1cccc2c1C=[N+](c1ccc(F)cc1)CC2`, the figures for the IC50 in data set [1] and in data set [2] were 23.8 µM and 21 µM, respectively. The inhibition of growth at 20 µM in data set [3] came to 53%. The inhibition of growth at 5 µM in data set [4] was 40.2%.
On to `COc1cccc2c1C=[N+](c1ccc(Br)cc1)CC2`, for which the IC50 in data set [1] came out at 6.12 µM; in data set [2] it was 11 µM. Besides, the inhibition of growth at 20 µM in data set [3] was determined as 96.8%. Moreover, the inhibition of growth at 5 µM in data set [4] was determined as 59.4%.
For the compound `COc1cccc2c1C=[N+](c1ccc(Br)cc1Br)CC2`, the results for the IC50 in data set [1] and in data set [2] were 2.46 µM and 4.53 µM, respectively. Moreover, the inhibition of growth at 20 µM in data set [3] is 51.9%. The inhibition of growth at 5 µM in data set [4] was 61.4%.
In the case of `COc1cccc2c1C=[N+](c1ccccc1F)CC2`, the IC50 in data set [1] turned out to be 4.55 µM; in data set [2] it was 6.64 µM. Moreover, the inhibition of growth at 20 µM in data set [3] was found to be 67.5%. The inhibition of growth at 5 µM in data set [4] came to 42%.
As to `CCOc1cccc2c1C=[N+](c1ccccc1I)CC2`, the inhibition of growth at 20 µM in data set [3] came out at 82.2%. The inhibition of growth at 5 µM in data set [4] turned out to be 49.7%.
Take `COc1cccc2c1C=[N+](c1ccc(Br)cc1F)CC2`: the IC50 is 3.62 µM in data set [1] and 6.95 µM in data set [2]. Further, in data set [3], the inhibition of growth at 20 µM is 69.2%. Also, in data set [4], the inhibition of growth at 5 µM was found to be 56.9%.
On to `COc1cccc2c1C=[N+](c1ccc(I)cc1)CC2`, for which the IC50 in data set [1] is 8.59 µM; in data set [2], 4.26 µM. Further, the inhibition of growth at 20 µM in data set [3] was 71.1%. Moreover, the inhibition of growth at 5 µM in data set [4] was 51.8%.
Consider `COc1cccc2c1C=[N+](c1cccc(C(F)(F)F)c1)CC2`, for which the figures for the IC50 in data set [1] and in data set [2] were 9.61 µM and 2.03 µM, respectively. Further, the inhibition of growth at 20 µM in data set [3] was found to be 78.3%. Also, in data set [4], the inhibition of growth at 5 µM is 47.9%.
The corresponding values for `COc1cccc2c1C=[N+](c1cc(Cl)cc(Cl)c1)CC2` are 2.65 µM, 3.61 µM, 86.4% and 55.8%.
Take `COc1cccc2c1C=[N+](c1ccc(C)cc1)CC2`: the inhibition of growth at 20 µM in data set [3] came to 4.7%. For the same compound, the inhibition of growth at 5 µM in data set [4] turned out to be 17.7%.
Turning to `COc1cccc2c1C=[N+](c1ccccc1C)CC2`, the inhibition of growth at 20 µM in data set [3] was 30.5%. Also, in data set [4], the inhibition of growth at 5 µM was 3.4%.
Take `COc1cccc2c1C=[N+](c1ccc(C#N)cc1)CC2`: the results for the IC50 in data set [1] and in data set [2] were 3.49 µM and 3.56 µM, respectively. Further, in data set [3], the inhibition of growth at 20 µM was found to be 81.2%. Moreover, the inhibition of growth at 5 µM in data set [4] is 36.4%.
As to `COc1cccc2c1C=[N+](c1cccc([N+](=O)[O-])c1)CC2`, the IC50 in data set [1] was 2.83 µM; in data set [2] it was 13.7 µM. For the same compound, in data set [3], the inhibition of growth at 20 µM amounted to 67.1%. In addition, the inhibition of growth at 5 µM in data set [4] came out at 40.3%.
Consider `COc1cccc2c1C=[N+](c1ccc(C(F)(F)F)cc1)CC2`, for which the IC50 in data set [1] came out at 2.58 µM; in data set [2], 7.07 µM. In addition, in data set [3], the inhibition of growth at 20 µM turned out to be 83.4%. Also, the inhibition of growth at 5 µM in data set [4] was determined as 53.3%.
With `COc1cccc2c1C=[N+](c1ccc(O)cc1)CC2`, the inhibition of growth at 20 µM in data set [3] worked out at 5.4%. Moreover, the inhibition of growth at 5 µM in data set [4] amounted to 4.7%.
The like results for `COc1cccc2c1C=[N+](c1ccccc1O)CC2` were, in that order, 8.4% and 0.6%.
On to `COc1cccc2c1C=[N+](c1ccc(Cl)cc1Cl)CC2`, for which the IC50 in data set [1] amounted to 1.99 µM; in data set [2], 3.55 µM. In addition, the inhibition of growth at 20 µM in data set [3] was found to be 88.2%. The inhibition of growth at 5 µM in data set [4] is 54.7%.
For the compound `COc1cccc2c1C=[N+](c1ccccc1[N+](=O)[O-])CC2`, the inhibition of growth at 20 µM in data set [3] was 3%. Besides, the inhibition of growth at 5 µM in data set [4] worked out at 10.5%.
As for `COc1ccc([N+]2=Cc3c(cccc3OC)CC2)cc1`, in data set [3], the inhibition of growth at 20 µM was found to be 0.7%. Moreover, the inhibition of growth at 5 µM in data set [4] amounted to 6.6%.
On to `COc1cccc2c1C=[N+](c1ccccc1C#N)CC2`, for which the IC50 in data set [1] is 6.97 µM; in data set [2], 4.61 µM. Moreover, the inhibition of growth at 20 µM in data set [3] is 51.1%. In data set [4], the inhibition of growth at 5 µM amounted to 30.4%.
